This experiment addresses T1, human GPR35 (Homo sapiens, UniProt Q9HC97).
T1 construct: expressed in transfected cells; host or cells: HEK293
The experiment in a line: Luciferase Reporter Assay (YAP responsive element) in HEK293 cells stably transfected with human GPR35. It counts as cell-based. As to conditions: overnight incubation. The protocol:
HEK293 cells stably transfected with human GPR35 were maintained in Dulbecco's Modified Eagle Medium (DMEM) supplemented with 10% FBS and 300 μg/mL Zeocin and 200 μg/mL Hygromycin at 37° C., 10% CO2. On Day 1, cells were plated in poly-D-lysine coated 96-well tissue culture plate in regular growth medium (DMEM/10% FBS/300 μg/mL Zeocin/200 μg/mL Hygromycin. On the next day, luciferase reporter plasmid DNA with YAP responsive element was transfected into cells using lipofectamine 2000 (Invitrogen) following manufacture's protocol. After transfection for 6 hr., cells were treated with testing compounds in fasting DMEM medium (phenol red free, FBS free) at varying compound concentrations ranging from 10 μM to […] in a 3-fold serial diluted fashion. After an overnight incubation, the luciferase activities were measured with SteadyLite Plus Kit (PerkinElmer) according to manufacturer's protocol. IC50 was determined by fitting the dose-response data to a four-parameter logistic curve using GraphPad Prism.
The symbol “+” indicates IC50 is greater than […]. “++” indicates IC50>100 nM but ≤[…]. “+++” indicates IC50≤100 nM.
In general terms: A reporter such as luciferase makes a cellular process visible.
T1 sequence (Q9HC97 whole entry): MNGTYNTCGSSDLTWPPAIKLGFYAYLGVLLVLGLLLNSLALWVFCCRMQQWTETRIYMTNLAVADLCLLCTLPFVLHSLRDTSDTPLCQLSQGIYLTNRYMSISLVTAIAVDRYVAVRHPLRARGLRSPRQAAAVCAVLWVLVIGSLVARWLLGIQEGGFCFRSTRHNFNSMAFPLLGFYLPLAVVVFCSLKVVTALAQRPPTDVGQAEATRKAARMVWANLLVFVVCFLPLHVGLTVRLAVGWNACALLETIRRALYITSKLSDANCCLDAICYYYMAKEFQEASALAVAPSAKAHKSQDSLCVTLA
For the molecule `O=C(Nc1ccc(OC2CC(F)(F)C2)c(F)c1)c1coc2cc(-c3nnn[nH]3)c(F)cc12` [Compound 1-27, N-(4-(3,3-difluorocyclobutoxy)-3-fluorophenyl)-5-fluoro-6-(1H-tetrazol-5-yl)benzofuran-3-carboxamide], the IC50 – broadly, the point on the concentration scale where inhibition reaches its midpoint – was 100 to 1000 nM. For `O=C(Nc1ccc(C2CCCC2)c(F)c1)c1coc2cc(-c3nnn[nH]3)ccc12` [Compound 1-14, N-(4-cyclopentyl-3-fluorophenyl)-6-(1H-tetrazol-5-yl)benzofuran-3-carboxamide] the value was at most 100 nM; for `O=C(Nc1ccc(OCc2ccc(F)cc2Cl)c(F)c1)c1coc2cc(-c3nnn[nH]3)ccc12` [Compound 1-6, N-(4-((2-chloro-4-fluorobenzyl)oxy)-3-fluorophenyl)-6-(1H-tetrazol-5-yl)benzofuran-3-carboxamide], 100 to 1000 nM.

In turn, `O=C(Nc1ccc(O[C@@H]2CCC(F)(F)C2)c(F)c1)c1coc2cc(-c3nnn[nH]3)c(F)cc12` (single isomer, unassigned) [Compound 1-37] came in with an IC50 of at most 100 nM. The result for `C[C@@H](Oc1ccc(NC(=O)c2coc3cc(-c4nnn[nH]4)c(F)cc23)cc1)c1ccc(F)cc1Cl` (single isomer, unassigned) [Compound 1-26] reads over 1000 nM; that for `O=C(Nc1ccc(OCc2ccc(Cl)cc2F)cc1)c1coc2cc(-c3nnn[nH]3)c(F)cc12` [Compound 1-41, N-(4-((4-chloro-2-fluorobenzyl)oxy)phenyl)-5-fluoro-6-(1H-tetrazol-5-yl)benzofuran-3-carboxamide], at most 100 nM.

Regarding `CC1(Oc2ccc(NC(=O)c3coc4cc(-c5nnn[nH]5)ccc34)cc2F)CC1` [Compound 1-15, N-(3-fluoro-4-(1-methylcyclopropoxy)phenyl)-6-(1H-tetrazol-5-yl)benzofuran-3-carboxamide], the IC50 is at most 100 nM. For `O=C(Nc1ccc(O[C@@H]2CCOC2)c(F)c1)c1coc2cc(-c3nnn[nH]3)c(F)cc12` [Compound 1-22, (R)-5-fluoro-N-(3-fluoro-4-((tetrahydrofuran-3-yl)oxy)phenyl)-6-(1H-tetrazol-5-yl)benzofuran-3-carboxamide] the value was over 1000 nM. `O=C(O)c1ccc2c(C(=O)Nc3ccc(OC4CCC4)c(F)c3)coc2c1` [Compound 1-3, 3-((4-cyclobutoxy-3-fluorophenyl)carbamoyl)benzofuran-6-carboxylic acid] registered an IC50 of over 1000 nM.

As for `CC1(Oc2ccc(NC(=O)c3coc4cc(-c5nnn[nH]5)c(F)cc34)cc2F)CC1` [Compound 1-16, 5-fluoro-N-(3-fluoro-4-(1-methylcyclopropoxy)phenyl)-6-(1H-tetrazol-5-yl)benzofuran-3-carboxamide], the IC50 was at most 100 nM. For `O=C(Nc1ccc(OCc2ccc(F)cc2Cl)c(F)c1)c1coc2cc(OCc3nnn[nH]3)ccc12` [Compound 1-5, 6-((1H-tetrazol-5-yl)methoxy)-N-(4-((2-chloro-4-fluorobenzyl)oxy)-3-fluorophenyl)benzofuran-3-carboxamide] the value was over 1000 nM; for `O=C(Nc1ccc(OC2CCC2)c(F)c1)c1coc2cc(-c3nnn[nH]3)ccc12` [Compound 1-2, N-(4-cyclobutoxy-3-fluorophenyl)-6-(1H-tetrazol-5-yl)benzofuran-3-carboxamide], at most 100 nM. For `O=C(Nc1ccc(OCc2ccc(F)cc2Cl)cc1)c1coc2cc(OCc3nnn[nH]3)ccc12` [Compound 1-8, 6-((1H-tetrazol-5-yl)methoxy)-N-(4-((2-chloro-4-fluorobenzyl)oxy)phenyl)benzofuran-3-carboxamide] the value was over 1000 nM; for `NC(=O)c1cc2occ(C(=O)Nc3ccc(OCc4ccc(F)cc4Cl)cc3)c2cc1F` [Compound 1-23, N3-(4-((2-chloro-4-fluorobenzyl)oxy)phenyl)-5-fluorobenzofuran-3,6-dicarboxamide], over 1000 nM; for `C[C@@H](Oc1ccc(NC(=O)c2coc3cc(-c4nnn[nH]4)c(F)cc23)cc1F)C(F)(F)F` (single isomer, unassigned) [Compound 1-31], 100 to 1000 nM.

`O=C(Nc1ccc(OCc2ccc(Cl)cn2)cc1)c1coc2cc(-c3nnn[nH]3)c(F)cc12` [Compound 1-51, N-(4-((5-chloropyridin-2-yl)methoxy)phenyl)-5-fluoro-6-(1H-tetrazol-5-yl)benzofuran-3-carboxamide] displayed an IC50 of at most 100 nM. For `O=C(Nc1ccc(OCc2cccc(F)c2Cl)cc1)c1coc2cc(-c3nnn[nH]3)c(F)cc12` [Compound 1-44, N-(4-((2-chloro-3-fluorobenzyl)oxy)phenyl)-5-fluoro-6-(1H-tetrazol-5-yl)benzofuran-3-carboxamide] the value was 100 to 1000 nM; for `O=C(Nc1ccc(OCc2ccc(F)cn2)cc1)c1coc2cc(-c3nnn[nH]3)c(F)cc12` [Compound 1-47, 5-fluoro-N-(4-((5-fluoropyridin-2-yl)methoxy)phenyl)-6-(1H-tetrazol-5-yl)benzofuran-3-carboxamide], 100 to 1000 nM. For `N#Cc1cc(F)ccc1COc1ccc(NC(=O)c2coc3cc(-c4nnn[nH]4)c(F)cc23)cc1` [Compound 1-48, N-(4-((2-cyano-4-fluorobenzyl)oxy)phenyl)-5-fluoro-6-(1H-tetrazol-5-yl)benzofuran-3-carboxamide] the value was 100 to 1000 nM. Consider `O=C(Nc1ccc(OCc2cc(F)c(Cl)c(F)c2)cc1)c1coc2cc(-c3nnn[nH]3)c(F)cc12` [Compound 1-53, N-(4-((4-chloro-3,5-difluorobenzyl)oxy)phenyl)-5-fluoro-6-(1H-tetrazol-5-yl)benzofuran-3-carboxamide], for which the IC50 was at most 100 nM. The result for `O=C(Nc1ccc(N2CCC[C@H]2C(F)(F)F)c(F)c1)c1coc2cc(-c3nnn[nH]3)c(F)cc12` [Compound 1-32, (S)-5-fluoro-N-(3-fluoro-4-(2-(trifluoromethyl)pyrrolidin-1-yl)phenyl)-6-(1H-tetrazol-5-yl)benzofuran-3-carboxamide] reads 100 to 1000 nM; that for `O=C(Nc1ccc(OC2CCCC2)c(F)c1)c1coc2cc(-c3nnn[nH]3)c(F)cc12` [Compound 1-20, N-(4-(cyclopentyloxy)-3-fluorophenyl)-5-fluoro-6-(1H-tetrazol-5-yl)benzofuran-3-carboxamide], at most 100 nM; that for `O=C(Nc1ccc(OCc2cc(F)c(Cl)cc2F)cc1)c1coc2cc(-c3nnn[nH]3)c(F)cc12` [Compound 1-55, N-(4-((4-chloro-2,5-difluorobenzyl)oxy)phenyl)-5-fluoro-6-(1H-tetrazol-5-yl)benzofuran-3-carboxamide], 100 to 1000 nM. Molecule `O=C(Nc1ccc(OCc2cc(Cl)cs2)cc1)c1coc2cc(-c3nnn[nH]3)c(F)cc12` [Compound 1-56, N-(4-((4-chlorothiophen-2-yl)methoxy)phenyl)-5-fluoro-6-(1H-tetrazol-5-yl)benzofuran-3-carboxamide] returned an IC50 of at most 100 nM. The result for `O=C(Nc1ccc(F)c(F)c1OC1CCCC1)c1coc2cc(-c3nnn[nH]3)ccc12` [Compound 1-12, N-(2-(cyclopentyloxy)-3,4-difluorophenyl)-6-(1H-tetrazol-5-yl)benzofuran-3-carboxamide] reads over 1000 nM.

The values are drawn from US20250214976A1, “GPR35 MODULATORS AND USES THEREOF” (Crossignal Therapeutics, Inc., priority 2022, published 2025).
